# pIC50: −log10 of the molar value.
# Test system: MDA-MB-231 multicell spheroids, viability (%T/C)
# Experiment: Anticancer human tumor MDA-MB-231 cell line growth inhibition [IpAb];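 further: viability read after seven days of drug exposure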;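 on viability, T/C: 100% = DMSO vehicle control viability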
# Conditions: for pIC50: curve of first compound; for viability, T/C: stronger effect = lower value
# From the text: Combinatorial screen of targeted agents with ipatasertib and abemaciclib in multi-cell type tumor spheroids
# A high-throughput screen of multi-cell type tumor spheroids was designed to identify active combinations of targeted small molecules and ipatasertib or abemaciclib. Complex spheroids include a stromal component modeled by human endothelial cells (HUVEC) and fibroblasts modeled by human mesenchymal stem cells (MSCs). The concentration ranges selected for each drug and investigational agent were based upon clinically achievable concentrations if the clinical Cmax of the agent was known.
# Compounds. The drugs and investigational agents: ipatasertib (NSC767898), abemaciclib(NSC768073), selumetinib (NSC741078), trametinib (758246), adavosertib (NSC754352), everolimus (NSC733504), sapanisertib (NSC764658), vemurafenib (NSC761431), venetoclax (NSC766270), copanlisib (NSC809693), apelisib (NSC765974), palbociblib (NSC758247), vemurafenib (NSC761431), dabrafenib (NSC764134), ravoxertinib (NSC781343), BMS-387032 (NSC767048), sotorasib (NSC818433), talazoparib (NSC767125) and afursertib (NSC778305), were obtained from the National Cancer Institute (NCI) Developmental Therapeutics Program Chemical Repository. The FDA-approved anticancer drug set is available from the NCI Developmental Therapeutics Program. […] The stock solutions were prepared in dimethyl sulfoxide (DMSO, Sigma-Aldrich, St. Louis, MO, cat. D2650) at 800-fold the tested concentration and stored at -70 degrees C prior to their use. All drugs and investigational agents were tested over a range starting from a high concentration at or near the clinical Cmax and decreasing in half-log increments. If the clinical Cmax for an agent had not been determined, the highest concentration tested was 10 microM.
# NCI60 Cell Culture. NCI60 cell lines were obtained from the NCI Developmental Therapeutics Program Tumor Repository. For each lot of cells, the Repository performed Applied Biosystems AmpFLSTR Identifiler testing with PCR amplification to confirm consistency with the published Identifier STR profile for each cell line. Cells were kept in continuous culture for no more than 20 passages. The optimal seeding densities for each of the cell lines at each time point assessed were determined prior to performing the concentration response studies. Briefly, the NCI60 human tumor lines were grown as monolayers in RPMI 1640 medium supplemented with 10% FBS and 2 mmol/L L-glutamine.
# An additional 9 lines were from the NCI60 cell line panel including MDA-MB-231 breast carcinoma, MDA-MB-468 breast carcinoma, MCF7 breast carcinoma, Hs578T breast carcinoma, MALME-3M melanoma, SK-MEL-2 melanoma, SK-OV-3 ovarian carcinoma, DU-145 prostate carcinoma, PC-3 prostate carcinoma, all cell lines along with major genetic alterations are listed on Table 2. Pooled donor human umbilical vein endothelial cells (HUVEC, Lonza, cat. CC-2519) and human mesenchymal stem cells (hMSC, Lonza, cat. PT-2501) were purchased from Lonza (Walkersville, MD).
# PDMR cell lines were grown in complete medium (DC medium): Dulbecco's modified Eagle's medium (DMEM)/F12 supplemented with 5% fetal bovine serum (FBS), 2 mM L-glutamine, 100 U/mL penicillin and 100 µg/ml streptomycin, 0.4 µg/ml hydrocortisone, 10 ng/ml epidermal growth factor (EGF) recombinant human protein, 24 µg/mL adenine, and 0.1 mg/mL primocin. During culture from frozen stock vials, PDMR cells were cultured in the same medium containing 10 µM Y-27632 (see Table 3). The PDCs were cultured in complete DMEM/F12 media without 10 microM Y-27632 dihydrochloride for at least two passages prior to the screen. The pooled donor HUVEC and hMSC were cultured in endothelial cell growth medium 2 (PromoCell, Heidelberg, Germany, cat. C-22011) and mesenchymal stem cell growth medium 2 (PromoCell, cat. C-28009), respectively. For all experiments, HUVEC and hMSC were used at passages </=5.
# […]
# [1] = second compound 0.1 µM, first compound 0.0316 µM
# [2] = second compound 0.1 µM, first compound 0.1 µM
# [3] = second compound 0.1 µM, first compound 0.316 µM
# [4] = second compound 0.1 µM, first compound 1 µM
# [5] = second compound 0.1 µM, first compound 3.16 µM
# [6] = second compound 0.1 µM, first compound 10 µM
# [7] = second compound 0.316 µM, first compound 0.0316 µM
# [8] = second compound 0.316 µM, first compound 0.1 µM
# [9] = second compound 0.316 µM, first compound 0.316 µM
# [10] = second compound 0.316 µM, first compound 1 µM
# [11] = second compound 0.316 µM, first compound 3.16 µM
# [12] = second compound 0.316 µM, first compound 10 µM
# [13] = second compound 1 µM, first compound 0.0316 µM
# [14] = second compound 1 µM, first compound 0.1 µM
# [15] = second compound 1 µM, first compound 0.316 µM
# [16] = second compound 1 µM, first compound 1 µM
# [17] = second compound 1 µM, first compound 3.16 µM
# [18] = second compound 1 µM, first compound 10 µM
smiles,measurement,setting,value
CC(=O)c1c(C)c2cnc(Nc3ccc(N4CCNCC4)cn3)nc2n(C2CCCC2)c1=O + CCN1CCN(Cc2ccc(Nc3ncc(F)c(-c4cc(F)c5nc(C)n(C(C)C)c5c4)n3)nc2)CC1,pIC50,second compound 0.01 µM,7.23
same,pIC50,second compound 0.0316 µM,7.35
same,pIC50,second compound 0.1 µM,7.74
same,pIC50,second compound 0.316 µM,8.92
same,pIC50,second compound 1 µM,< 6.52
same,"viability, T/C","second compound 0.01 µM, first compound 0.000949 µM",87.9%
same,"viability, T/C","second compound 0.01 µM, first compound 0.003 µM",82.1%
same,"viability, T/C","second compound 0.01 µM, first compound 0.00949 µM",74.1%
same,"viability, T/C","second compound 0.01 µM, first compound 0.03 µM",55.2%
same,"viability, T/C","second compound 0.01 µM, first compound 0.0949 µM",46.3%
same,"viability, T/C","second compound 0.01 µM, first compound 0.3 µM",43.1%
same,"viability, T/C","second compound 0.0316 µM, first compound 0.000949 µM",71.8%
same,"viability, T/C","second compound 0.0316 µM, first compound 0.003 µM",71.5%
same,"viability, T/C","second compound 0.0316 µM, first compound 0.00949 µM",66.8%
same,"viability, T/C","second compound 0.0316 µM, first compound 0.03 µM",52.8%
same,"viability, T/C","second compound 0.0316 µM, first compound 0.0949 µM",44.4%
same,"viability, T/C","second compound 0.0316 µM, first compound 0.3 µM",40.4%
same,"viability, T/C","second compound 0.1 µM, first compound 0.000949 µM",60%
same,"viability, T/C","second compound 0.1 µM, first compound 0.003 µM",59.2%
same,"viability, T/C","second compound 0.1 µM, first compound 0.00949 µM",54%
same,"viability, T/C","second compound 0.1 µM, first compound 0.03 µM",47.1%
same,"viability, T/C","second compound 0.1 µM, first compound 0.0949 µM",41%
same,"viability, T/C","second compound 0.1 µM, first compound 0.3 µM",41.8%
same,"viability, T/C","second compound 0.316 µM, first compound 0.000949 µM",49.2%
same,"viability, T/C","second compound 0.316 µM, first compound 0.003 µM",50.9%
same,"viability, T/C","second compound 0.316 µM, first compound 0.00949 µM",46.2%
same,"viability, T/C","second compound 0.316 µM, first compound 0.03 µM",44.7%
same,"viability, T/C","second compound 0.316 µM, first compound 0.0949 µM",44%
same,"viability, T/C","second compound 0.316 µM, first compound 0.3 µM",42%
same,"viability, T/C","second compound 1 µM, first compound 0.000949 µM",55.4%
same,"viability, T/C","second compound 1 µM, first compound 0.003 µM",58.5%
same,"viability, T/C","second compound 1 µM, first compound 0.00949 µM",53.8%
same,"viability, T/C","second compound 1 µM, first compound 0.03 µM",53.4%
same,"viability, T/C","second compound 1 µM, first compound 0.0949 µM",52.8%
same,"viability, T/C","second compound 1 µM, first compound 0.3 µM",48.9%
C=CCn1c(=O)c2cnc(Nc3ccc(N4CCN(C)CC4)cc3)nc2n1-c1cccc(C(C)(C)O)n1 + CC(C)NCC(C(=O)N1CCN(c2ncnc3c2C(C)CC3O)CC1)c1ccc(Cl)cc1,pIC50,second compound 0.1 µM,6.66
same,pIC50,second compound 0.316 µM,6.73
same,pIC50,second compound 1 µM,6.77
same,pIC50,second compound 3.16 µM,7.04
same,pIC50,second compound 10 µM,> 7.50
same,"viability, T/C",[1],93%
same,"viability, T/C",[2],86.6%
same,"viability, T/C",[3],32.9%
same,"viability, T/C",[4],17.8%
same,"viability, T/C",[5],16.4%
same,"viability, T/C",[6],20.5%
same,"viability, T/C",[7],92.5%
same,"viability, T/C",[8],74.4%
same,"viability, T/C",[9],30.1%
same,"viability, T/C",[10],17.3%
same,"viability, T/C",[11],15.3%
same,"viability, T/C",[12],19.6%
same,"viability, T/C",[13],76.7%
same,"viability, T/C",[14],68.4%
same,"viability, T/C",[15],28.3%
same,"viability, T/C",[16],16.7%
same,"viability, T/C",[17],15.5%
same,"viability, T/C",[18],17.4%
same,"viability, T/C","second compound 3.16 µM, first compound 0.0316 µM",60.6%
same,"viability, T/C","second compound 3.16 µM, first compound 0.1 µM",48.8%
same,"viability, T/C","second compound 3.16 µM, first compound 0.316 µM",26.2%
same,"viability, T/C","second compound 3.16 µM, first compound 1 µM",15.1%
same,"viability, T/C","second compound 3.16 µM, first compound 3.16 µM",14.6%
same,"viability, T/C","second compound 3.16 µM, first compound 10 µM",16.9%
same,"viability, T/C","second compound 10 µM, first compound 0.0316 µM",44.6%
same,"viability, T/C","second compound 10 µM, first compound 0.1 µM",32.5%
same,"viability, T/C","second compound 10 µM, first compound 0.316 µM",21.2%
same,"viability, T/C","second compound 10 µM, first compound 1 µM",15.3%
same,"viability, T/C","second compound 10 µM, first compound 3.16 µM",15%
same,"viability, T/C","second compound 10 µM, first compound 10 µM",16.6%
C=CCn1c(=O)c2cnc(Nc3ccc(N4CCN(C)CC4)cc3)nc2n1-c1cccc(C(C)(C)O)n1 + CCN1CCN(Cc2ccc(Nc3ncc(F)c(-c4cc(F)c5nc(C)n(C(C)C)c5c4)n3)nc2)CC1,pIC50,second compound 0.01 µM,6.62
same,pIC50,second compound 0.0316 µM,6.68
same,pIC50,second compound 0.1 µM,6.75
same,pIC50,second compound 0.316 µM,7.48
same,pIC50,second compound 1 µM,6.49
same,"viability, T/C","second compound 0.01 µM, first compound 0.0316 µM",88.8%
same,"viability, T/C","second compound 0.01 µM, first compound 0.1 µM",85%
same,"viability, T/C","second compound 0.01 µM, first compound 0.316 µM",38.6%
same,"viability, T/C","second compound 0.01 µM, first compound 1 µM",20.3%
same,"viability, T/C","second compound 0.01 µM, first compound 3.16 µM",15.4%
same,"viability, T/C","second compound 0.01 µM, first compound 10 µM",20%
same,"viability, T/C","second compound 0.0316 µM, first compound 0.0316 µM",80.1%
same,"viability, T/C","second compound 0.0316 µM, first compound 0.1 µM",69.3%
same,"viability, T/C","second compound 0.0316 µM, first compound 0.316 µM",38.9%
same,"viability, T/C","second compound 0.0316 µM, first compound 1 µM",23%
same,"viability, T/C","second compound 0.0316 µM, first compound 3.16 µM",17.9%
same,"viability, T/C","second compound 0.0316 µM, first compound 10 µM",20%
same,"viability, T/C",[1],59.8%
same,"viability, T/C",[2],56.8%
same,"viability, T/C",[3],43.1%
same,"viability, T/C",[4],26.1%
same,"viability, T/C",[5],19.9%
same,"viability, T/C",[6],21.2%
same,"viability, T/C",[7],47.4%
same,"viability, T/C",[8],48.7%
same,"viability, T/C",[9],42.5%
same,"viability, T/C",[10],32.9%
same,"viability, T/C",[11],24.8%
same,"viability, T/C",[12],26.4%
same,"viability, T/C",[13],51.8%
same,"viability, T/C",[14],51.7%
same,"viability, T/C",[15],50.5%
same,"viability, T/C",[16],48.5%
same,"viability, T/C",[17],41%
same,"viability, T/C",[18],36.5%

# Source: PubChem BioAssay AID2060328 (Molecular Pharmacology Branch, DTP, NCI, 2025)
